In ChEMBL document CHEMBL5038645, “Discovery of Mycobacterium tuberculosis Rv3364c-Derived Small Molecules as Potential Therapeutic Agents to Target SNX9 for Sepsis” (J Med Chem, 2022):
≈ marks a conversion by molar mass, not a printed value. Calls of active or inactive are those of the source. The calls are words filed in the database; no cut-off is given here.

How the values were obtained:
[1] = Antiinflammatory activity in […] cells assessed as reduction in LPS-induced IL-6 release at 10 uM pre incubated for 1 hr followed by LPS stimulation and measured after 30 mins by ELISA; assay type: functional
[2] = Antiinflammatory activity in […] cells assessed as reduction in LPS-induced TNF-alpha release at 10 uM pre incubated for 1 hr followed by LPS stimulation and measured after 30 mins by ELISA; assay type: functional
[3] = Antiinflammatory activity in […] cells assessed as reduction in LPS-induced NOX release at 10 uM pre incubated for 1 hr followed by LPS stimulation and measured after 30 mins by ELISA; assay type: functional
[4] = Drug uptake in CLP-induced systemic sepsis mouse model in lung macrophages at 10 microg/kg, ip; assay type: ADME, tissue-based; conditions: in vivo, 0.01 mg/kg, dose 10 µg/kg
[5] = Stability in human plasma assessed as parent compound remaining at 10 uM incubation upto 120 mins by LC-MS/MS analysis relative to control; assay type: ADME, cell-free; conditions: read-out: Stability
THP-1 [6] = assay: Inhibition of SNX9- p47phox protein-protein interaction in human THP-1 at 10 uM preincubated for 1 hrs followed by LPS stimulation for 30 mins; assay type: cell-based
BMDM [7] = assay: Effect on SNX9 expression in mouse BMDM cells at 1 to 5000 nM measured after 24 to 48 hrs; assay type: functional, cell-based; conditions: dose 1-5000 nM, time 24-48 hrs
THP-1 [8] = assay: Effect on SNX9 expression in human THP-1 cells at 1 to 5000 nM measured after 24 to 48 hrs; assay type: functional, cell-based; conditions: dose 1-5000 nM, time 24-48 hrs
THP-1 [9] = assay: Inhibition of SNX9- p47phox protein-protein interaction in LPS-induced early endosome of human THP-1cells at 10 uM preincubated for 1 hrs followed by LPS stimulation for 30 mins; assay type: cell-based
Mus musculus [10] = assay: Protection against CLP-induced systemic sepsis SNX9+/+ mouse model assessed as reduction in liver damage at 10 microg/kg, ip by H and E staining based analysis; assay type: functional, organism-based; conditions: dose 10.0 µg/kg
Mus musculus [11] = assay: Protection against CLP-induced systemic sepsis SNX9+/+ mouse model assessed as reduction in lung damage at 10 microg/kg, ip by H and E staining based analysis; assay type: functional, organism-based; conditions: dose 10.0 µg/kg
Mus musculus [12] = assay: In vivo inhibition of SNX9-p47phox protein-protein interaction in CLP-induced systemic sepsis mouse model at 10 microg/kg, ip; assay type: functional, organism-based; conditions: dose 10.0 µg/kg
Mus musculus [13] = assay: Protection against CLP-induced systemic sepsis SNX9+/+ mouse model assessed as reduction in serum IL-10 at 10 microg/kg, ip; assay type: functional, organism-based; conditions: dose 10.0 µg/kg
Mus musculus [14] = assay: Protection against CLP-induced systemic sepsis SNX9+/+ mouse model assessed as reduction in serum IL-6 at 10 microg/kg, ip; assay type: functional, organism-based; conditions: dose 10.0 µg/kg
BMDM [15] = assay: Antiinflammatory activity in LPS-induced […] cells assessed as reduction in TNF-alpha production preincubated for 1 hr followed by LPS stimulation and measured after 30 mins by ELISA; assay type: functional, cell-based; conditions: dose 1-10000 nM
BMDM [16] = assay: Inhibition of SNX9- p47phox protein-protein interaction in mouse BMDM at 10 uM preincubated for 1 hrs followed by LPS stimulation for 30 mins; assay type: cell-based; conditions: time 1.5 hrs
[17] = Stability in human liver microsomes assessed as parent compound remaining at 10 uM preincubated for 5 mins followed by NADPH addition measured after 30 mins by LC-MS/MS analysis relative to control; assay type: ADME, Microsome; conditions: time 35 min, read-out: Stability
Mus musculus [18] = assay: Protection against CLP-induced systemic sepsis SNX9+/+ mouse model assessed as reduction in infiltration of immune cells at 10 microg/kg, ip by H & E staining based analysis; assay type: functional, organism-based; conditions: dose 10.0 µg/kg
Mus musculus [19] = assay: Protection against CLP-induced systemic sepsis SNX9+/+ mouse model assessed as reduction in serum IL-12p40 at 10 microg/kg, ip; assay type: functional, organism-based; conditions: dose 10.0 µg/kg
Escherichia coli = assay: Antibacterial activity against Escherichia coli ATCC 12701 assessed as bacterial clearance incubated for 6 to 24 hrs by microbroth dilution method; assay type: functional; conditions: time 6-24 hrs
Mus musculus [20] = assay: Protection against CLP-induced ip dosed systemic sepsis SNX9+/+ mouse model; assay type: functional, organism-based; conditions: dose 1.0 µg/kg
Mus musculus [21] = assay: Protection against CLP-induced systemic sepsis SNX9+/+ mouse model assessed as reduction in serum IL-1beta at 10 microg/kg, ip; assay type: functional, organism-based; conditions: dose 10.0 µg/kg
Mus musculus [22] = assay: Protection against CLP-induced systemic sepsis SNX9+/+ mouse model assessed as reduction in serum TNF-alpha at 10 microg/kg, ip; assay type: functional, organism-based; conditions: dose 10.0 µg/kg
[23] = AUC (0 to last) in C57BL/6 mouse at 1 mg/kg, ip incubation up to 6 hrs by LC-MS/MS analysis; assay type: ADME, organism-based; set-up: route intraperitoneal, dose 1 mg/kg, time <=6; conditions: in vivo
Mus musculus [24] = assay: Protection against CLP-induced systemic sepsis SNX9-/- mouse model assessed as effect on mouse survival at 100 to 1000 microg/kg, ip; assay type: functional, organism-based; conditions: dose 100-1000 µg/kg
[25] = Half life in C57BL/6 mouse at 1 mg/kg, ip incubation up to 6 hrs by LC-MS/MS analysis; assay type: ADME, organism-based; conditions: in vivo
Mus musculus [26] = assay: Protection against CLP-induced systemic sepsis SNX9+/+ mouse model assessed as mortality at 100 to 1000 microg/kg, ip; assay type: functional; conditions: dose 100-1000 µg/kg; at 100 to 1000 µg/kg
Mus musculus [27] = assay: Protection against CLP-induced systemic sepsis SNX9+/+ mouse model assessed as reduction in serum IL-18 at 10 microg/kg, ip; assay type: functional, organism-based; conditions: dose 10.0 µg/kg
[28] = Tmax in C57BL/6 mouse at 1 mg/kg, ip incubation up to 6 hrs by LC-MS/MS analysis; assay type: ADME, organism-based; conditions: in vivo
[29] = Cmax in C57BL/6 mouse at 1 mg/kg, ip incubation up to 6 hrs by LC-MS/MS analysis; assay type: ADME, organism-based; set-up: route intraperitoneal, dose 1 mg/kg, time <=6; conditions: in vivo
THP-1 [30] = assay: Antiinflammatory activity in LPS-induced human THP-1 cells assessed as reduction in TNF-alpha production preincubated for 1 hr followed by LPS stimulation and measured after 30 mins by ELISA; assay type: functional, cell-based; conditions: dose 1-10000 nM
Pseudomonas aeruginosa = assay: Antibacterial activity against Pseudomonas aeruginosa ATCC 10145 assessed as bacterial clearance incubated for 6 to 24 hrs by microbroth dilution method; assay type: functional; conditions: time 6-24 hrs
BMDM [31] = assay: Inhibition of SNX9- p47phox protein-protein interaction in LPS-induced early endosome of mouse BMDM cells at 10 uM preincubated for 1 hrs followed by LPS stimulation for 30 mins; assay type: cell-based
Staphylococcus aureus = assay: Antibacterial activity against Staphylococcus aureus ATCC 6538 assessed as bacterial clearance incubated for 6 to 24 hrs by microbroth dilution method; assay type: functional; conditions: time 6-24 hrs
Mus musculus [32] = assay: In vivo inhibition of SNX9-p47phox protein-protein interaction in CLP-induced systemic sepsis mouse model assessed as reduction ROS in splenocytes at 10 microg/kg, ip; assay type: functional, organism-based; conditions: dose 10.0 µg/kg
Mus musculus [33] = assay: Protection against CLP-induced systemic sepsis SNX9+/+ mouse model assessed as reduction in spleen damage at 10 microg/kg, ip by H and E staining based analysis; assay type: functional, organism-based; conditions: dose 10.0 µg/kg
[34] = Drug uptake in CLP-induced systemic sepsis mouse model in liver macrophages at 10 microg/kg, ip; assay type: ADME, tissue-based; conditions: in vivo, 0.01 mg/kg, dose 10 µg/kg

SMILES: Cc1cccc(CNc2nc(NCCOCCOCCN)nc(-c3ccc(C(C)(C)C)cc3)n2)c1
- inhibition at 10 µM [1]: 56.7%
- inhibition at 10 µM [2]: 25.3%
- inhibition at 10 µM [3]: 41.6%

SMILES: CC(C)(C)c1ccc(-c2nc(NCCOCCOCCN)nc(NCc3ccc(F)cc3)n2)cc1
- inhibition at 10 µM [1]: 53.3%
- inhibition at 10 µM [2]: 30.1%
- inhibition at 10 µM [3]: 46.1%

SMILES: NCCOCCOCCNc1nc(NCC2CCCO2)nc(-c2ccc(C(F)(F)F)cc2)n1 (centres undefined)
- inhibition at 10 µM [1]: 23.4%
- inhibition at 10 µM [2]: 10.1%
- inhibition at 10 µM [3]: 46.1%

SMILES: CC(C)(C)c1ccc(-c2nc(NCCOCCOCCN)nc(NCC3CCCO3)n2)cc1.Cl (centres undefined)
- Drug uptake [4]: Active
- remaining at 2 h, 10 µM [5]: 93%
- inhibition at 10 µM [1]: 66.7%
- inhibition (THP-1 [6]): Active
- Activity (BMDM [7]): inactive
- Activity (THP-1 [8]): inactive
- inhibition (THP-1 [9]): Active
- Activity (Mus musculus [10]): Active
- Activity (Mus musculus [11]): Active
- inhibition (Mus musculus [12]): Active
- Activity (Mus musculus [13]): Active
- Activity (Mus musculus [14]): Active
- Activity (BMDM [15]): Dose-Dependent Effect
- inhibition (BMDM [16]): Active
- remaining at 0.5 h, 10 µM [17]: > 100%
- Activity (Mus musculus [18]): Active
- Activity (Mus musculus [19]): Active
- MIC80 (Escherichia coli): 1.98 µg/mL
- Activity (Mus musculus [20]): Dose-Dependent Effect
- Activity (Mus musculus [21]): Active
- Activity (Mus musculus [22]): Active
- AUC(0-t) at 6 h [23]: 209 ng·h/mL
- Activity (Mus musculus [24]): inactive
- half-life [25]: 63.6 min
- Activity (Mus musculus [26]): 70%
- Activity (Mus musculus [27]): Active
- Tmax [28]: 10.2 min
- Cmax [29]: 136 ng/mL
- Activity (THP-1 [30]): Dose-Dependent Effect
- MIC80 (Pseudomonas aeruginosa): 1.98 µg/mL
- inhibition (BMDM [31]): Active
- MIC80 (Staphylococcus aureus): 4 µg/mL
- inhibition (Mus musculus [32]): Active
- Activity (Mus musculus [33]): Active
- Drug uptake [34]: Active
- inhibition at 10 µM [2]: 60.8%
- inhibition at 10 µM [3]: 57%

SMILES: CC(C)(C)c1ccc(-c2nc(NCCOCCOCCOCCN)nc(NCC3CCCO3)n2)cc1 (centres undefined)
- inhibition at 10 µM [1]: 22.2%
- inhibition at 10 µM [2]: 13.4%
- inhibition at 10 µM [3]: 19.5%

SMILES: CC(C)(C)c1ccc(-c2nc(NCCOCCOCCN)nc(NCCc3ccccc3)n2)cc1
- inhibition at 10 µM [1]: 40.2%
- inhibition at 10 µM [2]: 25.3%
- inhibition at 10 µM [3]: 23%

SMILES: CC(C)(C)c1ccc(CNc2nc(NCCOCCOCCN)nc(-c3ccc(C(C)(C)C)cc3)n2)cc1
- inhibition at 10 µM [1]: 46.7%
- inhibition at 10 µM [2]: 55.2%
- inhibition at 10 µM [3]: 38.4%

SMILES: C=CCNc1nc(NCCOCCOCCN)nc(-c2ccc(C(C)(C)C)cc2)n1
- inhibition at 10 µM [1]: 32.6%
- inhibition at 10 µM [2]: 23.4%
- inhibition at 10 µM [3]: 29.2%

SMILES: CC(C)(C)c1ccc(Nc2nc(NCCOCCOCCN)nc(-c3ccc(C(C)(C)C)cc3)n2)cc1
- inhibition at 10 µM [1]: 32.8%
- inhibition at 10 µM [2]: 23.2%
- inhibition at 10 µM [3]: 29.2%

SMILES: CC(C)(C)c1ccc(-c2nc(NCCCOCCOCCCN)nc(NCC3CCCO3)n2)cc1 (centres undefined)
- inhibition at 10 µM [1]: 22.3%
- inhibition at 10 µM [2]: 13.8%
- inhibition at 10 µM [3]: 19.1%

SMILES: NCCOCCOCCNc1nc(NCC2CCCO2)nc(-c2ccc(OC(F)(F)F)cc2)n1 (centres undefined)
- inhibition at 10 µM [1]: 16.7%
- inhibition at 10 µM [2]: 10.9%
- inhibition at 10 µM [3]: 38.4%

SMILES: CC(C)(C)c1ccc(-c2nc(NCCOCCOCCN)nc(Nc3ccc(Cl)cc3)n2)cc1
- inhibition at 10 µM [1]: 32.5%
- inhibition at 10 µM [2]: 33.7%
- inhibition at 10 µM [3]: 34.2%

SMILES: NCCOCCOCCNc1nc(NCC2CCCO2)nc(-c2ccc(Cl)cc2)n1 (centres undefined)
- inhibition at 10 µM [1]: 33.3%
- inhibition at 10 µM [2]: 25.3%
- inhibition at 10 µM [3]: 30.7%

SMILES: COc1ccc(-c2nc(NCCOCCOCCN)nc(NCC3CCCO3)n2)cc1 (centres undefined)
- inhibition at 10 µM [1]: 50.1%
- inhibition at 10 µM [2]: 10.1%
- inhibition at 10 µM [3]: 38.4%

SMILES: CC1(C)S[C@@H]2[C@H](NC(=O)[C@H](N)c3ccccc3)C(=O)N2[C@H]1C(=O)O [AMPICILLIN]
- MIC80 (Escherichia coli): 1.98 µg/mL (≈ 5.67 µM)
- MIC80 (Pseudomonas aeruginosa): 0.99 µg/mL (≈ 2.83 µM)
- MIC80 (Staphylococcus aureus): 0.25 µg/mL (≈ 0.715 µM)
